Here are results for nine compounds from US7544703B2, “Cyclic compound having 4-pyridylalkylthio group having substituted or unsubstituted amino group introduced therein” (Santen Pharmaceutical Co., Ltd., priority 2004, dated 2009).

The subject of assay [1] is HUVEC (normal human umbilical vein endothelial cells). The assay is described as follows: VEGF-induced HUVEC proliferation: cell proliferation inhibitory action test.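 Note: each well holds 100 µL cell suspension before compound addition.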 Particulars: 72 h, 5 μL of 20 μg/mL test compound solution per well, WST-8 absorbance at 450 nm three days after VEGF addition, read-out: Cell proliferation inhibition rate (%). In kind it is cell-based. A digest of the protocol:
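HUVECs in 0.5% FBS F12K on type I collagen were pretreated 1 h with compound (20 μg/mL solution in PBS from DMSO stock, 5 μL/well), then stimulated with VEGF (400 ng/mL solution). After 3 days at 37 °C, viability was read by WST-8 A450. Inhibition % was calculated against a 1.0% DMSO control, minus cell+medium blank.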

In assay [2] the test system is choroidal neovascularization models in rats. The assay is described as follows: Neovascularization incidence test using laser-induced choroidal neovascularization models in rats. In kind it is in vivo. The conditions noted are these: 168 h; Brown Norway rat, krypton laser photocoagulation; 30 mg/kg/day oral once a day for 7 days; fluorescein fundus photography on day 7; average of 3 to 4 rats and 6 to 8 eyes; read-out: Ratio of neovascularization incidence rate (% of Control). On the procedure: A neovascularization incidence test of the compounds of the present invention was performed using a choroidal neovascularization model in rats, which is one of the widely-used methods of evaluating in vivo choroidal neovascularization inhibitory effects of drugs.
As one of the widely-used methods of evaluating choroidal neovascularization inhibitory effects of drugs, a neovascularization incidence test using choroidal neovascularization models in rats was reported in Graefe's Arch. Cli. Exp. Ophthalmol., 235, 313-319 (1997). According to the method described in the above-mentioned document, a neovascularization incidence test of the compounds of the present invention was performed, the ratio of neovascularization incidence rate of each of the compounds of the present invention administration groups to a neovascularization incidence rate of vehicle administration group (control group) was calculated, and the choroidal neovascularization inhibitory effect of each of the compounds of the present invention was evaluated using the obtained ratio as an index.
A 1% aqueous methyl cellulose solution was added to each test compound to suspend it, whereby a 6 mg/10 mL test compound suspension was prepared.
• 1) A 7:1 mixed solution (1 mL/kg) of a 5% ketamine hydrochloride injection and a 2% xylazine hydrochloride injection was administered intramuscularly to rats (Brown Norway male rat, 8 weeks of age, weight: 200 to 250 g) to anesthetize them systemically. • 2) A tropicamide-phenylephrine hydrochloride ophthalmic solution (trade name: Mydrin-P) was instilled into eyes to cause mydriasis, and then photocoagulation was performed in a Bruch's membrane of each rat using a krypton laser photocoagulation apparatus.
The laser photocoagulation was performed at 8 spots per eye sparsely avoiding thick retinal vessels in a posterior section of ocular fundus and focusing on the deep layer of the retina. Photocoagulation conditions were adjusted to 100 μm of spot size, 100 mW of intensity and 0.1 sec. dulation. • 3) After the photocoagulation, the ocular fundus was photographed to confirm photocoagulation (laser irradiation) sites. (Method of Test and Method of Measurement) • 1) From the laser photocoagulation day (i.e. on day 0) to day 6, the test compound suspension (30 mg/kg/day) was administered orally once a day for 7 consecutive days. • 2) As the vehicle administration group (control group), a test was performed in the same manner as in 1) except that the 1% aqueous methyl cellulose solution was used instead of the test compound suspension, and the result was used as a control. (Method of Evaluation) • 1) On day 7 after the photocoagulation, 0.1 mL of a 10% aqueous fluorescein solution was injected into a tail vein of the rat, and fluorescein fundus photography was performed. • 2) Next, in the fluorescein fundus photography, a spot where fluorescence leak was not observed was judged as negative, and a spot where fluorescence leak was observed was judged as positive. Photocoagulation sites where a little fluorescence leak was observed were judged as positive when two such sites are present. • 3) The neovascularization incidence rate was calculated according to the calculation equation 1. The ratio of the neovascularization incidence rate of the test compound administration group to that of the vehicle administration group was calculated according to the calculation equation 2 using the neovascularization incidence rate of the respective administration groups. […]

Structures can show the parent of a compound that is named as a salt.

For the compound `CC(=O)Nc1cc(CSc2ncccc2C(=O)Nc2ccc(Cl)cc2)ccn1` [Compound 4-10, 2-(2-Acetylaminopyridin-4-ylmethylthio)-N-(4-chlorophenyl)pyridine-3-carboxamide], the inhibition at 20 µg/mL (stock) in assay [1] came to 100%. The response vs control in vivo at 30 mg/kg/day in assay [2] amounted to 9%.
As for `CC(=O)Nc1cc(CSc2ncccc2C(=O)Nc2ccc(OC(F)(F)F)cc2)ccn1` [Compound 4-11, 2-(2-Acetylaminopyridin-4-ylmethylthio)-N-(4-trifluoromethoxyphenyl)pyridine-3-carboxamide], the inhibition at 20 µg/mL (stock) in assay [1] was found to be 93%. Moreover, the response vs control in vivo at 30 mg/kg/day in assay [2] was determined as 0%.
In the same order, the values of `CC(=O)Nc1cc(CSc2ncccc2C(=O)Nc2cc(C)cc(C)c2)ccn1` [Compound 4-1, 2-(2-Acetylaminopyridin-4-ylmethylthio)-N-(3,5-dimethylphenyl)pyridine-3-carboxamide] are 100% and 3%.
In the same order, the values of `Cc1cc(C)cc(NC(=O)c2cccnc2SCc2ccnc(N)c2)c1` [Compound 3-1, 2-(2-Aminopyridin-4-ylmethylthio)-N-(3,5-dimethylphenyl)pyridine-3-carboxamide monohydrochloride] are 100% and 12%.
In the same order, the values of `CC(=O)OCC(=O)Nc1cc(CSc2ncccc2C(=O)Nc2cc(C)cc(C)c2)ccn1` [Compound 10-1, 2-(2-Acetoxyacetylaminopyridin-4-ylmethylthio)-N-(3,5-dimethylphenyl)pyridine-3-carboxamide] are 100% and 11%.
On to `CNC(=O)Nc1cc(CSc2ncccc2C(=O)Nc2cc(C)cc(C)c2)ccn1` [Compound 9-1, N-(3,5-Dimethylphenyl)-2-[2-(N′-methylureido)pyridin-4-ylmethylthio]pyridine-3-carboxamide], for which, in assay [1], the inhibition at 20 µg/mL (stock) was found to be 100%. Further, in assay [2], the response vs control in vivo at 30 mg/kg/day stood at 8%.
In the same order, the values of `Nc1cc(CSc2ncccc2C(=O)Nc2ccc(OC(F)(F)F)cc2)ccn1` [Compound 3-10, 2-(2-Aminopyridin-4-ylmethylthio)-N-(4-trifluoromethoxyphenyl)pyridine-3-carboxamide] are 97% and 7%.
In the same order, the values of `CNc1cc(CSc2ncccc2C(=O)Nc2ccc(OC(F)(F)F)cc2)ccn1` [Compound 3-8, 2-(2-Methylaminopyridin-4-ylmethylthio)-N-(4-trifluoromethoxyphenyl)pyridine-3-carboxamide monohydrochloride] are 100% and 6%.
For `O=C(CO)Nc1cc(CSc2ncccc2C(=O)Nc2ccc(OC(F)(F)F)cc2)ccn1` [Compound 12-1, 2-(2-Hydroxyacetylaminopyridin-4-ylmethylthio)-N-(4-trifluoromethoxyphenyl)pyridine-3-carboxamide], the inhibition at 20 µg/mL (stock) in assay [1] worked out at 78%. In assay [2], the response vs control in vivo at 30 mg/kg/day was 6%.
